Assay results published in PubChem BioAssay (NCI).
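Five concentrations, 48 hours, 96-well plates. TGI is the concentration that stops growth completely.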

Assays:
Assay in all cases: NCI-60 cell line screen, 48 h
[1] = system: CAKI-1 renal
[2] = system: SNB-19 CNS
[3] = system: MDA-MB-435
[4] = system: NCI-H460 lung
[5] = system: TK-10 renal
[6] = system: K-562 leukemia
[7] = system: IGROV1 ovarian
[8] = system: RXF 393 renal
[9] = system: SNB-75 CNS
[10] = system: 786-0 renal
[11] = system: UACC-257 melanoma
[12] = system: HS 578T breast
[13] = system: SW-620 colon
[14] = system: HCT-116 colon
[15] = system: MDA-MB-231 breast
[16] = system: HCT-15 colon
[17] = system: SF-295 CNS
[18] = system: U251 CNS
[19] = system: HOP-62 NSCLC
[20] = system: MOLT-4 leukemia
[21] = system: HCC-2998 colon
[22] = system: COLO 205 colon
[23] = system: MALME-3M melanoma
[24] = system: ACHN renal
[25] = system: CCRF-CEM leukemia
[26] = system: UACC-62 melanoma
[27] = system: SK-OV-3 ovarian
[28] = system: EKVX NSCLC
[29] = system: NCI/ADR-RES ovarian
[30] = system: MCF7 breast
[31] = system: NCI-H226 lung
[32] = system: BT-549 breast
[33] = system: SK-MEL-28 melanoma
[34] = system: SF-268 CNS
[35] = system: OVCAR-3 ovarian
[36] = system: HT29 colon
[37] = system: OVCAR-4 ovarian
[38] = system: DU-145 prostate
[39] = system: UO-31 renal
[40] = system: SK-MEL-2 melanoma
[41] = system: A549 NSCLC
[42] = system: SK-MEL-5 melanoma
[43] = system: OVCAR-5 ovarian
[44] = system: RPMI-8226 leukemia
[45] = system: SN12C renal
[46] = system: KM12 colon
[47] = system: PC-3 prostate
[48] = system: T-47D breast
[49] = system: NCI-H23 lung
[50] = system: OVCAR-8 ovarian
[51] = system: M14 melanoma
[52] = system: MDA-N
[53] = system: HL-60(TB) leukemia
[54] = system: A498 renal
[55] = system: NCI-H522 lung
[56] = system: HOP-92 NSCLC
[57] = system: SR leukemia
[58] = system: SF-539 CNS
[59] = system: LOX IMVI melanoma

Structure (SMILES): COc1cc(Cc2nccc3cc(OC)c(OC)cc23)c(N=NN(C)C)cc1OC
- TGI [1]: 22.3 µM
- TGI [2]: 85.2 µM
- TGI [3]: 47.3 µM
- TGI [4]: 22.3 µM
- TGI [5]: 44.1 µM
- TGI [6]: > 100 µM
- TGI [7]: 39.2 µM
- TGI [8]: 16.4 µM
- TGI [9]: > 100 µM
- TGI [10]: 18.6 µM
- TGI [11]: 44.9 µM
- TGI [12]: 86.5 µM
- TGI [13]: 37.9 µM
- TGI [14]: 17.7 µM
- TGI [15]: 36.6 µM
- TGI [16]: 19.6 µM
- TGI [17]: 74.9 µM
- TGI [18]: 72 µM
- TGI [19]: > 100 µM
- TGI [20]: 90.3 µM
- TGI [21]: 28.9 µM
- TGI [22]: 33.8 µM
- TGI [23]: 38.4 µM
- TGI [24]: > 100 µM
- TGI [25]: 9.33 µM
- TGI [26]: 28.9 µM
- TGI [27]: 49.2 µM
- TGI [28]: 42.4 µM
- TGI [29]: 96.7 µM
- TGI [30]: 37.3 µM
- TGI [31]: 60 µM
- TGI [32]: 44 µM
- TGI [33]: 31.1 µM
- TGI [34]: 77.8 µM
- TGI [35]: 73.9 µM
- TGI [36]: 25 µM
- TGI [37]: 70.7 µM
- TGI [38]: 35.7 µM
- TGI [39]: 44.8 µM
- TGI [40]: 70.2 µM
- TGI [41]: 77.2 µM
- TGI [42]: 26.4 µM
- TGI [43]: 40.9 µM
- TGI [44]: 39.7 µM
- TGI [45]: 41.3 µM
- TGI [46]: 40.2 µM
- TGI [47]: 56.8 µM
- TGI [48]: 25.4 µM
- TGI [49]: 48.7 µM
- TGI [50]: 60 µM
- TGI [51]: 39.3 µM
- TGI [52]: 46.1 µM

Structure (SMILES): CCOC(=O)NC(Nc1ccc(C(=O)OCC)cc1)(C(F)(F)F)C(F)(F)F
- TGI [2]: > 100 µM
- TGI [3]: > 100 µM
- TGI [4]: > 100 µM
- TGI [5]: > 100 µM
- TGI [6]: > 100 µM
- TGI [7]: > 100 µM
- TGI [53]: > 100 µM
- TGI [9]: > 100 µM
- TGI [10]: > 100 µM
- TGI [12]: > 100 µM
- TGI [13]: > 100 µM
- TGI [14]: > 100 µM
- TGI [15]: > 100 µM
- TGI [16]: > 100 µM
- TGI [17]: > 100 µM
- TGI [18]: > 100 µM
- TGI [19]: > 100 µM
- TGI [54]: > 100 µM
- TGI [20]: > 100 µM
- TGI [21]: > 100 µM
- TGI [22]: > 100 µM
- TGI [55]: > 100 µM
- TGI [23]: > 100 µM
- TGI [24]: > 100 µM
- TGI [25]: > 100 µM
- TGI [26]: > 100 µM
- TGI [27]: > 100 µM
- TGI [56]: > 100 µM
- TGI [29]: > 100 µM
- TGI [30]: > 100 µM
- TGI [57]: > 100 µM
- TGI [31]: > 100 µM
- TGI [32]: > 100 µM
- TGI [33]: > 100 µM
- TGI [34]: > 100 µM
- TGI [35]: > 100 µM
- TGI [36]: > 100 µM
- TGI [37]: > 100 µM
- TGI [38]: > 100 µM
- TGI [39]: > 100 µM
- TGI [58]: > 100 µM
- TGI [41]: > 100 µM
- TGI [42]: > 100 µM
- TGI [43]: > 100 µM
- TGI [44]: > 100 µM
- TGI [45]: > 100 µM
- TGI [46]: > 100 µM
- TGI [47]: > 100 µM
- TGI [48]: > 100 µM
- TGI [49]: > 100 µM
- TGI [50]: > 100 µM
- TGI [51]: > 100 µM
- TGI [59]: > 100 µM
- TGI [52]: > 100 µM

Structure (SMILES): Oc1ccc2c(c1)-c1c(c3ccccc3n1CCN1CCOCC1)CC2
- TGI [1]: > 100 µM
- TGI [2]: > 100 µM
- TGI [3]: > 100 µM
- TGI [4]: > 100 µM
- TGI [5]: 94.4 µM
- TGI [6]: > 100 µM
- TGI [7]: > 100 µM
- TGI [53]: > 100 µM
- TGI [8]: > 100 µM
- TGI [9]: 68.5 µM
- TGI [10]: > 100 µM
- TGI [11]: 84.6 µM
- TGI [12]: > 100 µM
- TGI [14]: > 100 µM
- TGI [15]: > 100 µM
- TGI [16]: > 100 µM
- TGI [17]: > 100 µM
- TGI [18]: > 100 µM
- TGI [19]: > 100 µM
- TGI [54]: > 100 µM
- TGI [20]: > 100 µM
- TGI [22]: > 100 µM
- TGI [23]: > 100 µM
- TGI [24]: 53.3 µM
- TGI [25]: > 100 µM
- TGI [26]: 81 µM
- TGI [27]: 85.2 µM
- TGI [28]: > 100 µM
- TGI [29]: 95.3 µM
- TGI [30]: > 100 µM
- TGI [57]: > 100 µM
- TGI [31]: 81.2 µM
- TGI [32]: > 100 µM
- TGI [34]: > 100 µM
- TGI [35]: > 100 µM
- TGI [36]: > 100 µM
- TGI [38]: > 100 µM
- TGI [39]: > 100 µM
- TGI [58]: > 100 µM
- TGI [40]: 69.4 µM
- TGI [42]: > 100 µM
- TGI [43]: 61.3 µM
- TGI [44]: > 100 µM
- TGI [45]: > 100 µM
- TGI [46]: 51.3 µM
- TGI [47]: > 100 µM
- TGI [48]: > 100 µM
- TGI [49]: 69.1 µM
- TGI [50]: > 100 µM
- TGI [51]: 88 µM
- TGI [59]: > 100 µM
- TGI [52]: > 100 µM

Structure (SMILES): Cn1c2ccccc2c(=O)c2cccc(C(=O)NC(CCC(N)=O)C(=O)O)c21 (configuration not stated)
- TGI [1]: > 100 µM
- TGI [2]: > 100 µM
- TGI [3]: > 100 µM
- TGI [4]: > 100 µM
- TGI [5]: > 100 µM
- TGI [6]: > 100 µM
- TGI [7]: > 100 µM
- TGI [53]: 0.678 µM
- TGI [9]: > 100 µM
- TGI [10]: > 100 µM
- TGI [11]: > 100 µM
- TGI [12]: > 100 µM
- TGI [13]: > 100 µM
- TGI [14]: > 100 µM
- TGI [15]: > 100 µM
- TGI [16]: > 100 µM
- TGI [17]: > 100 µM
- TGI [18]: > 100 µM
- TGI [19]: > 100 µM
- TGI [54]: > 100 µM
- TGI [20]: > 100 µM
- TGI [21]: > 100 µM
- TGI [22]: > 100 µM
- TGI [23]: > 100 µM
- TGI [24]: > 100 µM
- TGI [26]: > 100 µM
- TGI [27]: > 100 µM
- TGI [28]: > 100 µM
- TGI [29]: > 100 µM
- TGI [30]: > 100 µM
- TGI [57]: > 100 µM
- TGI [31]: > 100 µM
- TGI [32]: > 100 µM
- TGI [33]: > 100 µM
- TGI [34]: > 100 µM
- TGI [35]: > 100 µM
- TGI [36]: > 100 µM
- TGI [37]: > 100 µM
- TGI [38]: > 100 µM
- TGI [58]: > 100 µM
- TGI [40]: > 100 µM
- TGI [41]: > 100 µM
- TGI [42]: > 100 µM
- TGI [43]: > 100 µM
- TGI [44]: > 100 µM
- TGI [45]: > 100 µM
- TGI [46]: > 100 µM
- TGI [47]: > 100 µM
- TGI [48]: > 100 µM
- TGI [49]: > 100 µM
- TGI [50]: > 100 µM
- TGI [51]: > 100 µM
- TGI [59]: > 100 µM
- TGI [52]: > 100 µM
